From patent US9221864B2, “Tricyclic nucleic acid analogs” (Isis Pharmaceuticals, Inc., priority 2012, dated 2015)

What was measured:
Format in all cases: binding
[1] = test system: matched DNA complement 5′-d(AGCAAAXAACGC)-3′, X=A; assay: Thermal stability (Tm) of 12mer oligomeric compounds duplexed to matched DNA complement; details: relative to unmodified DNA 12mer ISIS 438705; 1.2 μM, 10 mM sodium phosphate buffer pH 7.2, 100 mM NaCl, 0.1 mM EDTA
Procedure: (§1) The oligomeric compounds in Table 1 were evaluated for thermal stability (Tm) using the method described herein. The Tm of the modified 12mer oligomeric compounds were compared to an unmodified 12mer DNA oligonucleotide when duplexed to either the matched or mismatched RNA complement.
(§2) Tm's were determined using a Cary 100 Bio spectrophotometer with the Cary Win UV thermal program was used to measure absorbance vs. temperature. For the Tm experiments, the oligomeric compounds were prepared at a concentration of 1.2 μM in 10 mM sodium phosphate buffer (pH 7.2) containing 100 mM NaCl and 0.1 mM EDTA. The concentrations, determined at 85° C. was 1.2 μM after mixing of equal volumes of selected oligomeric compound and complementary matched or mismatched RNA. The oligomeric compounds were hybridized with a complimentary matched or mismatched RNA by heating the duplex to 90° C. for 5 minutes and then cooling to room temperature. Tm measurements were taken using a spectrophotometer while the duplex solution was heated in a cuvette at a rate of 0.5° C./min starting at 15° C. until the temperature was 85° C. Tm values were determined using Vant Hoff calculations (A260 vs temperature curve) using non self-complementary sequences where the minimum absorbance related to the duplex and the maximum absorbance related to the non-duplex single strand are manually integrated into the program. Mismatched thermal stability was also measured and calculated by subtracting values of Tm measured vs the mismatched RNA complement from values of Tm vs the matched RNA complement for each modification.
(§3) The sequence for matched DNA complement is designated herein as SEQ ID No.: 6, 5′-d(AGCAAAXAACGC)-3′, wherein X=A. The sequence for matched RNA complement is designated herein as SEQ ID No.: 6, 5′-r(AGCAAAYAACGC)-3′, wherein Y=A. The mismatched RNA complement sequence is designated herein as SEQ ID No.: 7, 5′-r(AGCAAAZAACGC)-3′, wherein Z=G, C or U.

[2] = test system: matched RNA complement 5′-r(AGCAAAYAACGC)-3′, Y=A; assay: Thermal stability (Tm) of 12mer oligomeric compounds duplexed to matched RNA complement; details: relative to unmodified DNA 12mer ISIS 438705; 1.2 μM, 10 mM sodium phosphate buffer pH 7.2, 100 mM NaCl, 0.1 mM EDTA
Procedure: as §1, §2, §3

[3] = test system: mismatched RNA complement 5′-r(AGCAAAZAACGC)-3′, Z=G; assay: Mismatch discrimination (Tm) vs mismatched RNA complement, Z=G; details: 1.2 μM, 10 mM sodium phosphate buffer pH 7.2, 100 mM NaCl, 0.1 mM EDTA
Procedure: as §1, §2, §3

[4] = test system: mismatched RNA complement 5′-r(AGCAAAZAACGC)-3′, Z=C; assay: Mismatch discrimination (Tm) vs mismatched RNA complement, Z=C; details: 1.2 μM, 10 mM sodium phosphate buffer pH 7.2, 100 mM NaCl, 0.1 mM EDTA
Procedure: as §1
as §2, with “Mismatched thermal stability was also measured and calculated by subtracting values of Tm measured vs the mismatched RNA complement from values of Tm vs the matched RNA complement for each modification.” left out
as §3

[5] = test system: mismatched RNA complement 5′-r(AGCAAAZAACGC)-3′, Z=U; assay: Mismatch discrimination (Tm) vs mismatched RNA complement, Z=U; details: 1.2 μM, 10 mM sodium phosphate buffer pH 7.2, 100 mM NaCl, 0.1 mM EDTA
Procedure: as §1
as §2, with “Mismatched thermal stability was also measured and calculated by subtracting values of Tm measured vs the mismatched RNA complement from values of Tm vs the matched RNA complement for each modification.” left out
as §3

| Substance | ΔTm/mod vs DNA, Matched, X = A [1] | ΔTm/mod vs RNA, Matched, Y = A [2] | ΔTm/mod vs RNA, Mismatched, Z = G; Mismatched Discrimination [Tm(mismatched) − Tm(matched)] [3] [°C] | ΔTm/mod vs RNA, Mismatched, Z = C; Mismatched Discrimination [Tm(mismatched) − Tm(matched)] [4] [°C] | ΔTm/mod vs RNA, Mismatched, Z = U; Mismatched Discrimination [Tm(mismatched) − Tm(matched)] [5] [°C] |
| --- | --- | --- | --- | --- | --- |
| ISIS 438707: 12mer GCGTTT1TTTGCT with one LNA nucleoside, phosphodiester linkages, SEQ ID No. 5 (DNA GCGTTT_{1}TTTGCT; as printed in the source, key not given here) | +1.7 °C | +5.5 °C | −5.4 | −15.4 | −13.7 |
| ISIS 560180: 12mer GCGTTTaTTTGCT with one α-L-LNA nucleoside, phosphodiester linkages, SEQ ID No. 5 (DNA GCGTTT_{a}TTTGCT; as printed in the source, key not given here) | +1.4 °C | +5.7 °C | −4.7 | −14.8 | −13.5 |
| A01: 12mer GCGTTTbTTTGCT with one α-L-TriNA (α-L-tricyclic nucleic acid) nucleoside, phosphodiester linkages, SEQ ID No. 5 (DNA GCGTTT_{b}TTTGCT; as printed in the source, key not given here) [Compound A01] | +2.6 °C | +7.1 °C | −5.5 | −16.7 | −17.0 |
| ISIS 438705: unmodified 12mer DNA GCGTTTTTTGCT, phosphodiester linkages, SEQ ID No. 5, purchased from commercial sources (unmodified DNA) | 0 (ref) ° C. | 0 (ref) ° C. | −4.1 | −13.0 | −13.2 |
